# Experiments:
# Assay in all cases: relative viability (nuclei count vs DMSO), 5 days (fraction); higher = more cells survive
# Irinotecan + Pictilisib = compound: CCc1c2c(nc3ccc(OC(=O)N4CCC(N5CCCCC5)CC4)cc13)-c1cc3c(c(=O)n1C2)COC(=O)[C@]3(O)CC [Irinotecan] + CS(=O)(=O)N1CCN(Cc2cc3nc(-c4cccc5[nH]ncc45)nc(N4CCOCC4)c3s2)CC1 [Pictilisib] (partner 1 µM)
# Outline: (§1)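 Nuclei were stained with Hoechst during a one-step fixation (final 0.05% Triton X-100, 1% formaldehyde, 1 ug/ml Hoechst) carried out 5 days after dosing, then counted on 4× images. The cells, lung cancer lines in 1536-well plates, had been dosed by pin tool the day after seeding with one drug alone or a fixed anchor-drug dose plus five library-drug doses (not always all listed) in √10 steps. Relative viability is the nuclei count in treated wells divided by that in vehicle wells, and each value is the median of duplicate plates.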
# RU-SKI 43 + Trametinib = compound: CC[C@@H](C)CNCC(=O)N1CCC2=C([C@@H]1COC3=CC=CC(=C3)C)C=CS2 [RU-SKI 43] + CC(=O)Nc1cccc(-n2c(=O)n(C3CC3)c(=O)c3c(Nc4ccc(I)cc4F)n(C)c(=O)c(C)c32)c1 [Trametinib] (partner 0.02 µM)
# Outline: as §1
# Irinotecan + Olaparib = compound: CCc1c2c(nc3ccc(OC(=O)N4CCC(N5CCCCC5)CC4)cc13)-c1cc3c(c(=O)n1C2)COC(=O)[C@]3(O)CC [Irinotecan] + O=C(c1cc(Cc2n[nH]c(=O)c3ccccc23)ccc1F)N1CCN(C(=O)C2CC2)CC1 [Olaparib] (partner 8 µM)
# Outline: as §1
# RU-SKI 43 + Crizotinib = compound: CC[C@@H](C)CNCC(=O)N1CCC2=C([C@@H]1COC3=CC=CC(=C3)C)C=CS2 [RU-SKI 43] + C[C@@H](Oc1cc(-c2cnn(C3CCNCC3)c2)cnc1N)c1c(Cl)ccc(F)c1Cl [Crizotinib] (partner 1 µM)
# Outline: as §1
Cell Line,relative viability (Irinotecan + Pictilisib; first compound 0.6325 µM),relative viability (Irinotecan + Pictilisib; first compound 2 µM),relative viability (Irinotecan + Pictilisib; first compound 6.325 µM),relative viability (Irinotecan + Pictilisib; first compound 20 µM),relative viability (RU-SKI 43 + Trametinib; first compound 0.1 µM),relative viability (RU-SKI 43 + Trametinib; first compound 0.3162 µM),relative viability (RU-SKI 43 + Trametinib; first compound 1 µM),relative viability (RU-SKI 43 + Trametinib; first compound 3.162 µM),relative viability (RU-SKI 43 + Trametinib; first compound 10 µM),relative viability (Irinotecan + Olaparib; first compound 0.6325 µM),relative viability (Irinotecan + Olaparib; first compound 2 µM),relative viability (Irinotecan + Olaparib; first compound 6.325 µM),relative viability (Irinotecan + Olaparib; first compound 20 µM),relative viability (RU-SKI 43 + Crizotinib; first compound 0.1 µM),relative viability (RU-SKI 43 + Crizotinib; first compound 0.3162 µM),relative viability (RU-SKI 43 + Crizotinib; first compound 1 µM),relative viability (RU-SKI 43 + Crizotinib; first compound 3.162 µM),relative viability (RU-SKI 43 + Crizotinib; first compound 10 µM)
NCI-H1915,0.341,0.261,0.185,0.195,0.296,0.34,0.311,0.288,0.265,0.151,0.186,0.144,0.115,0.913,1.36,0.938,0.957,0.959
NCI-H2085,0.453,0.403,0.313,0.307,0.506,0.493,0.494,0.653,0.499,0.583,0.433,0.423,0.408,0.881,0.709,0.805,0.783,0.761
NCI-H23,0.397,0.442,0.256,0.258,0.395,0.392,0.38,0.443,0.348,0.245,0.254,0.207,0.2,0.472,0.42,0.451,0.598,0.39
EPLC-272H,0.212,0.305,0.188,0.195,0.294,0.294,0.552,0.296,0.278,0.508,0.547,0.307,0.218,0.981,0.964,1.01,,0.812

# Source: the supplement of paper PMC10307832
